One assay has as its system HMC3 microglial cells. Nature of the assay: Inflammatory factor mRNA in HMC3 microglial cells induced by Aβ1-42 oligomers (qPCR). It is filed as cell-based, human. The following applies: for mRNA expression of IL-6 / mRNA expression of TNF-α: 10 μM Aβ1-42 oligomers, 48 hours, YN-011 100 nM and 500 nM; for mRNA expression of IL-6: GABA 10 μM and 100 μM (so in the source); for mRNA expression of TNF-α: GABA 100 μM, combination 100 μM GABA and 100 nM YN-011; for inflammatory cytokine mRNA expression: Aβ1-42 oligomers (figure legends). Here is the method: Under sterile conditions, dissolve the synthesized Aβ1-42 peptide (AnaSpec #AS-20276) in hexafluoroisopropanol (Mecklin #H811026) to obtain a 1 mM solution. Divide the solution into 1.5 ml sterile centrifuge tubes and evaporate the hexafluoroisopropanol in a vacuum evaporator. The dried peptide forms a film in the tubes and is stored at −20° C. for later use. Freshly prepare Aβ1-42 oligomers from the dried peptide film as follows: dissolve the dried peptide film in anhydrous DMSO to obtain a 5 mM solution, then dilute with cold cell culture basal medium to obtain a 100 µM stock solution. After incubating at 4° C. for 24 hours, use the stock solution for cell treatment.
Seed HMC3 human microglial cells into a 24-well plate. After overnight incubation at 37° C. with 5% CO2, treat the cells in each well with 10 μM Aβ1-42 oligomers alone or co-treated with 1, 10, or 100 μM GABA for 48 hours. Each drug treatment is performed in three replicate wells. After 48 hours of treatment, isolate total RNA from the cells in each well using 1 ml of Trizol (Invitrogen #15596026) following the manufacturer's instructions. Dissolve the RNA pellet in 20 μl of DEPC-treated water. Measure the RNA concentration and purity using a NanoDrop 2000. Convert RNA into cDNA using a reverse transcription kit (Yeasen #11141ES60). Prepare the PCR reaction as follows: 5 μl of PCR mix (Yeasen #10108ES03), 0.2 μl of forward primer, 0.2 μl of reverse primer, 1 μl of cDNA, and 3.6 μl of water. Perform qPCR on an Applied Biosystems 7500 real-time PCR system using the following thermal program: initial denaturation at 95° C. for 3 minutes, followed by 40 cycles of denaturation at 95° C. for 30 seconds, annealing at 60° C. for 30 seconds, and extension at 72° C. for 1 minute. Compare the relative mRNA expression of TNF-α and IL-6 between treated and untreated cells using the ΔΔCt method, normalized to the expression of the housekeeping gene RPLP0.
Please refer to section 8.17 for the experimental procedure, but the drug treatment in this experiment is different from that in section 8.17. In this experiment, the drug treatment is as follows: treat the cells in each well with 10 μM Aβ1-42 oligomers alone or co-treated with 10, 100, or 500 nM YN-011 for 48 hours. Each drug treatment is performed in three replicate wells.
Please refer to section 8.17 for the experimental procedure, but the drug treatment in this experiment is different from that in section 8.17. In this experiment, the drug treatment is as follows: treat the cells in each well with 10 µM Aβ1-42 oligomers alone or co-treated with 100 μM GABA and/or 100 nM YN-011 for 48 hours. Each drug treatment is performed in three replicate wells.
(In general: In qPCR the cycle at which signal appears reflects the starting amount.)

For the next assay, the system named is SH-SY5Y neuronal cells. The assay is described as follows: Apoptosis in TNF-α-induced SH-SY5Y cells (cleaved-caspase 3 immunofluorescence). The note with it: 60 ng/ml TNF-α, 48 hours; YN-011 10, 100, 500 nM; GABA 1, 10, 100 μM; combination 100 μM GABA + 100 nM YN-011. It is filed as cell-based. The protocol:
The experimental procedure is as follows: • 1) Digest the SH-SY5Y neuronal cells in a 10 cm culture dish using 0.25% trypsin to prepare a single-cell suspension. Seed the single-cell suspension into a 24-well plate, placing a sterile coverslip in each well. • 2) Place the culture plate in a CO2 incubator and pre-culture overnight at 37° C. with 5% CO2 to allow the cells to adhere. • 3) Using medium containing 5% FBS, treat the cells in each well with 60 ng/ml TNF-α alone or co-treated with 10, 100, or 500 nM YN-011 at 37° C. for 48 hours. […]

Entries after “also recorded” stand apart in the source; their conditions may differ.

We go through two molecules from patent US20250376498A1, “FUSION PROTEINS COMPRISING AN IMPROVED GLP-1 RECEPTOR AGONIST AND USES THEREOF” (Guangzhou Innogen Pharmaceutical Group Co., Ltd., priority 2022, published 2025).

For the molecule `NCCCC(=O)O` [GABA, γ-aminobutyric acid], in the assay with HMC3 microglial cells, the “mRNA expression of IL-6” value is given as “significantly reduce”, the “mRNA expression of TNF-α” value is given as “significantly reduces” and the “inflammatory cytokine mRNA expression” value is reported as “reduction of inflammatory cytokine mRNA expression”. Further, in the assay on SH-SY5Y neuronal cells, the “apoptosis in TNF-α-induced neuronal cells (cleaved-caspase 3 positive cells)” value is listed as “reduces apoptosis; also recorded: reduction of apoptosis”.

B1: YN-011: GLP-1 fusion protein of SEQ ID NO: 7: GLP-1 (A8G, G22E, R36G), linker peptide and IgG2/Fc domain (C222S, A330S, P331S) (protein)
chain: HGEGTFTSDVSSYLEEQAAKEFIAWLVKGGGSSGAPPPSGGGGSERKSCVECPPCPAPPVAGPSVFLFPPKPKDTLMISRTPEVTCVVVDVSHEDPEVQFNWYVDGVEVHNAKTKPREEQFNSTFRVVSVLTVVHQDWLNGKEYKCKVSNKGLPSSIEKTISKTKGQPREPQVYTLPPSREEMTKNQVSLTCLVKGFYPSDIAVEWESNGQPENNYKTTPPMLDSDGSFFLYSKLTVDKSRWQQGNVFSCSVMHEALHNHYTQKSLSLSPG
As to B1, in the assay with HMC3 microglial cells, the “mRNA expression of IL-6” value is reported as “significantly reduce”, the “mRNA expression of TNF-α” value is “significantly reduce” and the “inflammatory cytokine mRNA expression” value is on record as “reduction of inflammatory cytokine mRNA expression”. Also, the “apoptosis in TNF-α-induced neuronal cells (cleaved-caspase 3 positive cells)” value with SH-SY5Y neuronal cells is on record as “significantly reduces apoptosis; also recorded: reduction of apoptosis”.
